Where “and” joins values, the source holds several entries; their conditions need not be identical. Equal entries are not always repeated. Calls of active or inactive are those of the source. How the calls were made is not given here.
System: rodent lifetime carcinogenesis bioassay, tumor incidence TD50
Test: carcinogenic potency in animals, long-term in vivo studies, CPDB compilation (AID 1745844)

Work on `N[C@@H](CCC(=O)NNc1ccc(C(=O)O)cc1)C(=O)O` yielded a TD50 (mouse, strain Swiss albino, females, by gavage, site: liver, lesion: several types, types named in the paper, dosed 52 weeks, study length 133 weeks) of 41400 mg/kg/day, a TD50 (mouse, strain Swiss albino, males, by gavage, site: lung, lesion: several types, types named in the paper, dosed 52 weeks, study length 133 weeks) of 250 mg/kg/day and a TD50 (mouse, strain Swiss albino, males, by gavage, site: subcutaneous tissue, lesion: fibrosarcoma, dosed 52 weeks, study length 133 weeks) of 277 mg/kg/day.
`ClCc1cccnc1` showed a TD50 (mouse, strain B6C3F1, females, by gavage, site: any site (literature study), lesion: several types, types named in the paper, dosed 91 weeks, study length 104 weeks) of 141 mg/kg/day, a TD50 (mouse, strain B6C3F1, females, by gavage, site: liver, lesion: hepatocellular adenoma + hepatocellular carcinoma + neoplastic nodule, dosed 91 weeks, study length 104 weeks) of 16300 mg/kg/day and a TD50 (mouse, strain B6C3F1, females, by gavage, site: lung, lesion: alveolar/bronchiolar adenoma + alveolar/bronchiolar carcinoma, dosed 91 weeks, study length 104 weeks) of 1970 mg/kg/day. It also gave a TD50 (mouse, strain B6C3F1, females, by gavage, site: stomach, lesion: squamous-cell carcinoma + squamous-cell papilloma, dosed 91 weeks, study length 104 weeks) of 394 mg/kg/day, a TD50 (mouse, strain B6C3F1, males, by gavage, site: any site (literature study), lesion: several types, types named in the paper, dosed 91 weeks, study length 104 weeks) of 64.9 mg/kg/day and a TD50 (mouse, strain B6C3F1, males, by gavage, site: liver, lesion: hepatocellular adenoma + hepatocellular carcinoma + neoplastic nodule, dosed 91 weeks, study length 104 weeks) of 324 mg/kg/day. For the same compound, the TD50 (mouse, strain B6C3F1, males, by gavage, site: lung, lesion: alveolar/bronchiolar adenoma + alveolar/bronchiolar carcinoma, dosed 91 weeks, study length 104 weeks) was 624 mg/kg/day, the TD50 (mouse, strain B6C3F1, males, by gavage, site: stomach, lesion: squamous-cell carcinoma + squamous-cell papilloma, dosed 91 weeks, study length 104 weeks) was 161 mg/kg/day and the TD50 (rat, strain Fischer 344, females, by gavage, site: any site (literature study), lesion: several types, types named in the paper, dosed 93 weeks, study length 104 weeks) was 160 mg/kg/day (inactive). It also gave a TD50 (rat, strain Fischer 344, males, by gavage, site: stomach, lesion: squamous-cell carcinoma + squamous-cell papilloma, dosed 93 weeks, study length 104 weeks) of 433 mg/kg/day.
For `NC(=O)c1cccnc1`, the carcinogen call (mouse, strain Swiss albino, females, in drinking water, site: lung, lesion: several types, types named in the paper, dosed 113 weeks, study length 113 weeks) was “negative (inactive)” and the carcinogen call (mouse, strain Swiss albino, males, in drinking water, site: lung, lesion: several types, types named in the paper, dosed 109 weeks, study length 109 weeks) was “negative (inactive)”.
With `O=C(O[C@@H]1Cc2c(O)cc(O)cc2O[C@@H]1c1cc(O)c(O)c(O)c1)c1cc(O)c(O)c(O)c1` the carcinogen call (mouse, strain C3H/HeN, males, in drinking water, site: liver, lesion: several types, types named in the paper, dosed 58 weeks, study length 58 weeks) was “negative (inactive)”.
With `O=CC(O)C(O)C(O)C(O)COC1OC(COC2OC(CO)C(O)C(O)C2O)C(O)C(O)C1O` (stereo not drawn) the TD50 (rat, strain ACI, females, in feed, site: urinary bladder, lesion: one or several types, types not named, dosed 68 weeks, study length 68 weeks) was 1640 mg/kg/day (inactive) and the TD50 (rat, strain ACI, males, in feed, site: urinary bladder, lesion: one or several types, types not named, dosed 68 weeks, study length 68 weeks) was 3190 mg/kg/day (inactive).
In the case of `[N]=O`, the carcinogen call (mouse, strain ICR/Jcl, females, inhaled, site: lung, lesion: adenoma, dosed 126 weeks, study length 126 weeks) is reported as “negative (inactive)”.
`C1C2OC2C2C1C1CC2C2OC12` (stereo not drawn) was tested, and the TD50 (mouse, strain CD-1 HaM/ICR, females, in feed, site: any site (literature study), lesion: several types, types named in the paper, dosed 64 weeks, study length 86 weeks) was 789 mg/kg/day (inactive), the carcinogen call (mouse, strain CD-1 HaM/ICR, females, in feed, site: liver, lesion: several types, types named in the paper, dosed 64 weeks, study length 86 weeks) was “negative (inactive)” and the TD50 (mouse, strain CD-1 HaM/ICR, females, in feed, site: lung, lesion: several types, types named in the paper, dosed 64 weeks, study length 86 weeks) was 1660 mg/kg/day (inactive). For the same compound, the TD50 (mouse, strain CD-1 HaM/ICR, males, in feed, site: any site (literature study), lesion: several types, types named in the paper, dosed 77 weeks, study length 86 weeks) was 149 mg/kg/day (inactive), the TD50 (mouse, strain CD-1 HaM/ICR, males, in feed, site: liver, lesion: several types, types named in the paper, dosed 77 weeks, study length 86 weeks) was 930 mg/kg/day (inactive) and the TD50 (mouse, strain CD-1 HaM/ICR, males, in feed, site: lung, lesion: several types, types named in the paper, dosed 77 weeks, study length 86 weeks) was 373 mg/kg/day (inactive). The TD50 (rat, strain Charles River CD (Sprague-Dawley), males, in feed, site: any site (literature study), lesion: several types, types named in the paper, dosed 77 weeks, study length 107 weeks) was 176 mg/kg/day (inactive) and the TD50 (rat, strain Charles River CD (Sprague-Dawley), males, in feed, site: liver, lesion: several types, types named in the paper, dosed 77 weeks, study length 107 weeks) was 3910 mg/kg/day (inactive).
In the case of `CC(O)C(=O)O` (stereo not drawn), the TD50 (rat, strain F344/DuCrj, females, in drinking water, site: any site (literature study), lesion: one or several types, types not named, dosed 104 weeks, study length 113 weeks) is reported as 103000 mg/kg/day and the TD50 (rat, strain F344/DuCrj, males, in drinking water, site: liver, lesion: hepatocellular adenoma, dosed 104 weeks, study length 113 weeks) is reported as 54500 mg/kg/day.
`c1ccncc1` showed a TD50 (mouse, strain B6C3F1, females, in drinking water, site: all sites, lesion: hemangioma + hemangiosarcoma, dosed 104 weeks, study length 104 weeks) of 690 mg/kg/day, a TD50 (mouse, strain B6C3F1, females, in drinking water, site: all sites, lesion: hemangioma, dosed 104 weeks, study length 104 weeks) of 868 mg/kg/day and a TD50 (mouse, strain B6C3F1, females, in drinking water, site: any site (literature study), lesion: several types, types named in the paper, dosed 104 weeks, study length 104 weeks) of 338 mg/kg/day. It also gave a TD50 (mouse, strain B6C3F1, females, in drinking water, site: liver, lesion: hepatoblastoma + hepatocellular carcinoma, dosed 104 weeks, study length 104 weeks) of 27.2 mg/kg/day, a TD50 (mouse, strain B6C3F1, females, in drinking water, site: liver, lesion: hepatoblastoma, dosed 104 weeks, study length 104 weeks) of 132 mg/kg/day and a TD50 (mouse, strain B6C3F1, females, in drinking water, site: liver, lesion: hepatocellular adenoma + hepatoblastoma + hepatocellular carcinoma, dosed 104 weeks, study length 104 weeks) of 150 mg/kg/day. The TD50 (mouse, strain B6C3F1, females, in drinking water, site: liver, lesion: hepatocellular adenoma, dosed 104 weeks, study length 104 weeks) was 41.9 mg/kg/day, the TD50 (mouse, strain B6C3F1, females, in drinking water, site: liver, lesion: hepatocellular carcinoma, dosed 104 weeks, study length 104 weeks) was 41.6 mg/kg/day and the TD50 (mouse, strain B6C3F1, females, in drinking water, site: lung, lesion: alveolar/bronchiolar adenoma + alveolar/bronchiolar carcinoma, dosed 104 weeks, study length 104 weeks) was 1990 mg/kg/day. For the same compound, the TD50 (mouse, strain B6C3F1, males, in drinking water, site: any site (literature study), lesion: several types, types named in the paper, dosed 103 weeks, study length 103 weeks) was 25700 mg/kg/day, the TD50 (mouse, strain B6C3F1, males, in drinking water, site: liver, lesion: hepatoblastoma + hepatocellular carcinoma, dosed 103 weeks, study length 103 weeks) was 22.1 mg/kg/day and the TD50 (mouse, strain B6C3F1, males, in drinking water, site: liver, lesion: hepatoblastoma, dosed 103 weeks, study length 103 weeks) was 68.1 mg/kg/day. The TD50 (mouse, strain B6C3F1, males, in drinking water, site: liver, lesion: hepatocellular adenoma + hepatoblastoma + hepatocellular carcinoma, dosed 103 weeks, study length 103 weeks) was 496 mg/kg/day, the TD50 (mouse, strain B6C3F1, males, in drinking water, site: liver, lesion: hepatocellular adenoma, dosed 103 weeks, study length 103 weeks) was 488 mg/kg/day and the TD50 (mouse, strain B6C3F1, males, in drinking water, site: liver, lesion: hepatocellular carcinoma, dosed 103 weeks, study length 103 weeks) was 28.6 mg/kg/day. The TD50 (rat, strain Fischer 344, females, in drinking water, site: all sites, lesion: mononuclear-cell leukemia, dosed 104 weeks, study length 104 weeks) was 31.2 mg/kg/day, the TD50 (rat, strain Fischer 344, females, in drinking water, site: any site (literature study), lesion: several types, types named in the paper, dosed 104 weeks, study length 104 weeks) was 32.9 mg/kg/day and the TD50 (rat, strain Fischer 344, males, in drinking water, site: any site (literature study), lesion: several types, types named in the paper, dosed 103 weeks, study length 103 weeks) was 31 mg/kg/day. For the same compound, the TD50 (rat, strain Fischer 344, males, in drinking water, site: kidney, lesion: tubule adenoma + tubule carcinoma, dosed 103 weeks, study length 103 weeks) was 67.3 mg/kg/day and 74.6 mg/kg/day, the TD50 (rat, strain Fischer 344, males, in drinking water, site: kidney, lesion: tubule adenoma, dosed 103 weeks, study length 103 weeks) was 73.7 mg/kg/day and 75.6 mg/kg/day and the TD50 (rat, strain Fischer 344, males, in drinking water, site: liver, lesion: hepatocellular adenoma + hepatoblastoma + hepatocellular carcinoma, dosed 103 weeks, study length 103 weeks) was 160 mg/kg/day. It also gave a TD50 (rat, strain Wistar, males, in drinking water, site: any site (literature study), lesion: several types, types named in the paper, dosed 103 weeks, study length 103 weeks) of 7.14 mg/kg/day, a TD50 (rat, strain Wistar, males, in drinking water, site: testis, lesion: interstitial-cell adenoma, bilateral + interstitial-cell adenoma, dosed 103 weeks, study length 103 weeks) of 22.4 mg/kg/day and a TD50 (rat, strain Wistar, males, in drinking water, site: thyroid gland, lesion: follicular-cell adenoma, bilateral + follicular-cell adenoma, dosed 103 weeks, study length 103 weeks) of 38.4 mg/kg/day.
